Data: patent US20210009630A1, “CYCLIC DINUCLEOTIDES AS STING AGONISTS” (Janssen Biotech, Inc., priority 2017, published 2021)
Read-outs that look alike come from different tables or passages of the source.

Key:
[1] = system: human STING pathway (THP1-ISG cells); assay: STING human cell reporter assay; format: cell-based; conditions: IRF-inducible SEAP reporter, 24 h, means of at least three values
Protocol: Agonism of the human STING pathway is assessed in THP1-ISG cells (Invivogen, cat #thp-isg) derived from human THP1 monocyte cell line by stable integration of an interferon regulatory factor (IRF)-inducible SEAP reporter construct. THP1-Blue ISG cells express a secreted embryonic alkaline phosphatase (SEAP) reporter gene under the control of an ISG54 minimal promoter in conjunction with five interferon (IFN)-stimulated response elements. As a result, THP1-Blue ISG cells allow the monitoring of IRF activation by determining the activity of SEAP. The levels of IRF-induced SEAP in the cell culture supernatant are readily assessed with alkaline phosphatase detection medium, a SEAP detection reagent. These cells are resistant to Zeocin. 2′3′cGAMP was used as a positive control in this assay. To run the assay, 60,000 cells were dispensed in 30 μL/well of a white, opaque bottom tissue culture treated 384-well plate.
Test compounds were added in a volume of 10 μL (1% DMSO final concentration). Compounds are initially prepared in 100% DMSO, spotted on an compound dilution plate and then diluted in media prior to transfer. The assay was incubated for 24 h at 37° C., 5% CO2 then plates were centrifuged at 1200 rpm (120×g) for 5 min. After final incubation, 90 μL of alkaline phosphatase detection medium-substrate was added to each well of a new 384-well clear plate and 10 μL of the cell supernatant was transferred from the assay plate to the new alkaline phosphatase detection medium-plate using a Biomek FX and mixed 4 times. Plates were incubated at RT for 20 min then absorbance at 655 nm was determined on the Tecan Safire2.

[2] = target: human STING (biotinylated STING protein, residues 139-379 of Q86WV6, H232R) (Homo sapiens, UniProt Q86WV6, H232R); assay: STING SPA binding assay
Protocol: The HIS tag is cleaved after purification and prior to biotinylation.
Test compounds (80 nL) were added with an acoustic dispenser (EDC Biosystems) in 100% DMSO for a final assay concentration of 1% DMSO. Plates were centrifuged for 1 min and incubated for 60 min at room temperature. […] Plates were dark adapted for 2 h and read on a ViewLux (Perkin Elmer) for 12 min per plate.

[3] = system: THP1-Blue ISG cells (IFN-β secretion); assay: Human interferon-β induction assay; format: cell-based; conditions: total cumulative IFN-β induction over the dose range tested (0.78 to 50 uM) in THP-1 cells after a 24 hour exposure
Protocol: THP1-Blue ISG cells are used to measure the secretion of IFN-β into the culture supernatant following STING pathway activation. To run the assay, anti-IFN-β capture antibodies were coated on […] well MultiArray plates (Mesoscale Discovery). After a one hour incubation, plates were washed and 50 μL supernatant from the STING human cell reporter assay plates or IFN-β standards were mixed with 20 μL Sulfotag-conjugated detection antibody in the coated plates. Plates were incubated, shaking for 2 h, washed, and read buffer was applied. Electrochemiluminescence was measured on the SectorImager.

[4] = target: T1, human STING (E. coli produced truncated STING protein) (Homo sapiens, UniProt Q86WV6, H232R); assay: STING SPR binding assay; conditions: steady state affinity, 1:1 binding model, 25° C.
T1 construct: contains residues 139-379 of Q86WV6 with an R at position 232 (H232R); HIS tag (N, cleaved yes); made in house; host or cells: E. coli
Protocol: Compounds were analyzed on an S200 biacore SPR instrument (GE Healthcare). E. coli produced truncated STING protein was immobilized on a series S streptavidin chip via biotin capture (GE Healthcare #BR100531) with. […] Steady state affinity and kinetic evaluations were carried out using 1:1 binding model (STING was treated as a dimer). Run parameters were as follows: 60 sec on, 300 sec off for the IFM compounds, cyclic-di-GMP (60 sec on/60 sec off), thiol isomer 1 (60 sec on/300 sec off) and cGAMP (60 sec on/1200 sec off) with a flow rate of 50 μL/min and data collection at 40 Hz at 25° C.

[5] = read-out: hSTING SPA IC50, displacement of [3H]-2′3′-cGAMP from biotin-STING, means of at least three values

Chain of human STING (biotinylated STING protein, residues 139-379 of Q86WV6, H232R) (Q86WV6 139-379 H232R, one chain of several): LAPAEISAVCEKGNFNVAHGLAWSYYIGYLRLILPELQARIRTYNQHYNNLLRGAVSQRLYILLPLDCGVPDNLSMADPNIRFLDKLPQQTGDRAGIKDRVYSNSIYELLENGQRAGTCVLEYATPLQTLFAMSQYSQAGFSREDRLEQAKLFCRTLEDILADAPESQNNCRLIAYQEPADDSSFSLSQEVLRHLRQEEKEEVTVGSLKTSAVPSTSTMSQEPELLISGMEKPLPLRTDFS
T1 sequence (Q86WV6 139-379 H232R): as the sequence (Q86WV6 139-379 H232R, one chain of several) above

Row | SMILES | EC50 ([1]; Homo sapiens) [nM] | IC50 [2] [nM] | human IFN-β (ranking value) [3] [pg/mL] | EC50 [1] [nM] | Kd [4] [nM] | IC50 [2, 5] [nM]
1 | Nc1nc2c(ncn2[C@@H]2O[C@@H]3CNS(=O)(=O)OC4[C@@H](F)[C@H](n5cnc6c(N)ncnc65)O[C@@H]4COP(=O)(O)O[C@@H]2[C@@H]3O)c(=O)[nH]1 (stereo partly shown) [Compound 47] | ~39 | 1300 |  |  |  | 
2 | Nc1ncnc2c1ncn2[C@@H]1O[C@@H]2CNS(=O)(=O)O[C@@H]3[C@H](O)[C@@H](COP(=O)(O)O[C@H]2[C@H]1O)O[C@H]3n1cnc2c(N)ncnc21 [Compound 30] | 13000 | > 100000 |  |  |  | 
3 | Nc1nc2c(nnn2[C@@H]2O[C@@H]3COP(=O)(O)O[C@H]4[C@@H](F)[C@H](n5cnc6c(N)ncnc65)O[C@@H]4CNS(=O)(=O)O[C@@H]2C3)c(=O)[nH]1 [Compound 15] | 43 | 360 | 15611 |  |  | 
4 | Nc1ncnc2c1ncn2C1O[C@@H]2COP(=O)(O)O[C@@H]3[C@H](O)C(CNS(=O)(=O)O[C@H]2[C@H]1F)O[C@H]3n1cnc2c(N)ncnc21 (stereo partly shown) [Compound 41] | 22500 | > 100000 |  |  |  | 
5 | Nc1ncnc2c1ncn2[C@@H]1O[C@@H]2COP(=O)(O)O[C@H]3C[C@H](n4cnc5c(N)ncnc54)O[C@@H]3CNS(=O)(=O)O[C@@H]1[C@@H]2F [Compound 36] | 2460 | > 100000 |  |  |  | 
6 | CO[C@H]1[C@H]2OS(=O)(=O)NC[C@H]3O[C@@H](n4cnc5c(N)ncnc54)C[C@@H]3OP(=O)(O)OC[C@H]1O[C@H]2n1cnc2c(=O)[nH]cnc21 [Compound 40] | 38 | 66 |  |  |  | 
7 | Nc1nc2c(ncn2C2OC3CNS(=O)(=O)OC4C(COP(=O)(O)OC2C3)OC(n2cnc3c(N)ncnc32)C4F)c(=O)[nH]1 (stereo not shown) [Compound 26] | 1020 | 28400 |  |  |  | 
8 | CO[C@H]1[C@H]2OS(=O)(=O)NC[C@H]3O[C@@H](n4cnc5c(N)ncnc54)[C@H](F)[C@@H]3OP(=O)(O)OC[C@H]1O[C@H]2n1cc(F)c2c(=O)[nH]cnc21 [Compound 54] |  | 750 | 18578 |  |  | 
9 | CO[C@H]1[C@H]2OS(=O)(=O)NC[C@H]3O[C@@H](n4cnc5c(N)ncnc54)[C@H](F)[C@@H]3OP(=O)(O)OC[C@H]1O[C@H]2n1cc(F)c2c(=O)n(C)cnc21 [Compound 55] |  | 220 | 25628 |  |  | 
10 | Nc1ncnc2c1ncn2[C@@H]1O[C@@H]2COP(=O)(O)O[C@@H]3[C@H](F)[C@@H](CNS(=O)(=O)O[C@H]2[C@H]1F)O[C@H]3n1cnc2c(N)ncnc21 [Compound 35] | 7080 | > 100000 |  |  |  | 
11 | COC1C2COP(=O)(O)OC3C(CNS(=O)(=O)OC1C(n1nnc4c(=O)[nH]c(N)nc41)O2)OC(n1cnc2c(N)ncnc21)C3F (stereo not shown) [Compound 51] |  | 11 |  |  |  | 
12 | Nc1nc2c(nnn2[C@@H]2O[C@@H]3CNS(=O)(=O)O[C@H]4[C@@H](F)[C@H](n5cnc6c(N)ncnc65)O[C@@H]4COP(=O)(O)O[C@@H]2C3)c(=O)[nH]1 [Compound 37] | 1350 | 12400 |  |  |  | 
13 | CO[C@H]1[C@H]2OS(=O)(=O)NC[C@H]3O[C@@H](n4cnc5c(N)ncnc54)C[C@@H]3OP(=O)(O)OC[C@H]1O[C@H]2n1cnc2c(=O)[nH]c(N)nc21 [Compound 12] | 140 | 220 |  |  |  | 
14 | CO[C@H]1[C@H]2OP(=O)(O)OC[C@H]3OC(n4cnc5c(N)ncnc54)[C@H](F)[C@@H]3OS(=O)(=O)NC[C@H]1O[C@H]2n1cnc2c(=O)[nH]c(N)nc21 (stereo partly shown) [Compound 22] | 26 | 92 |  |  |  | 
15 | CO[C@H]1[C@H]2OS(=O)(=O)NC[C@H]3O[C@@H](n4cnc5c(N)ncnc54)[C@@H](F)[C@@H]3O[P@](=O)(O)OC[C@H]1O[C@H]2n1cnc2c(=O)[nH]c(N)nc21 [Compound 28] | 99 | 190 | 12969 |  |  | 
16 | Nc1ncnc2c1ncn2[C@@H]1O[C@@H]2COP(=O)(O)O[C@H]3[C@@H](O)[C@H](n4cnc5c(N)ncnc54)O[C@@H]3COP(=O)(O)O[C@H]2[C@H]1O [3′,3′cAMP, reference compound] |  |  | 539 | 17800 | 5990 | 73100
17 | Nc1nc2c(ncn2[C@@H]2O[C@@H]3COP(=O)(O)O[C@H]4[C@@H](F)[C@H](n5cnc6c(N)ncnc65)O[C@@H]4CNS(=O)(=O)O[C@@H]2[C@@H]3O)c(=O)[nH]1 [Compound 11] | 30 | 15 | 14896 |  | 6.5 | 
18 | Nc1ncnc2c1ncn2[C@@H]1O[C@@H]2CNS(=O)(=O)O[C@@H]3[C@H](F)[C@@H](COP(=O)(O)O[C@H]2[C@H]1F)O[C@H]3n1cnc2c(=O)[nH]cnc21 [Compound 39] | 65 | 21 |  |  |  | 
19 | Nc1nc2c(ncn2[C@@H]2O[C@@H]3COP(=O)(O)O[C@H]4[C@@H](O)[C@H](n5cnc6c(N)ncnc65)O[C@@H]4COP(=O)(O)O[C@@H]2[C@@H]3O)c(=O)[nH]1 [c-GAMP, (2′,3′)cyclic guanosine monophosphate-adenosine monophosphate, reference compound] |  |  |  | 530 |  | 
20 | CO[C@H]1[C@H]2OP(=O)(O)OC[C@H]3O[C@@H](n4cnc5c(N)ncnc54)[C@H](F)[C@@H]3NS(=O)(=O)OC[C@H]1O[C@H]2n1cnc2c(=O)[nH]c(N)nc21 [Compound 6] | 990 | 11 | 6762 |  | 1.2 | 
21 | Nc1ncnc2c1ncn2C1O[C@@H]2CNS(=O)(=O)O[C@H]3C(n4cnc5c(N)ncnc54)O[C@H](COP(=O)(O)O[C@H]2[C@H]1F)[C@H]3O (stereo partly shown) [Compound 17] | 250 | 21600 | 17298 |  | 5140 | 
22 | CO[C@H]1[C@H]2OP(=O)(O)OC[C@H]3O[C@@H](n4cnc5c(=O)[nH]cnc54)[C@H](F)[C@@H]3OS(=O)(=O)NC[C@H]1O[C@H]2n1cnc2c(=O)[nH]c(N)nc21 [Compound 53] |  | 4010 | 11036 |  |  | 
23 | Nc1nc2c(ncn2C2O[C@@H]3COP(=O)(O)O[C@H]4C[C@H](n5cnc6c(N)ncnc65)OC4CNS(=O)(=O)O[C@@H]2[C@@H]3O)c(=O)[nH]1 (stereo partly shown) [Compound 18] | 110 | 1140 | 15249 |  |  | 
24 | CO[C@H]1[C@H]2OP(=O)(O)OC[C@H]3OC(n4cnc5c(N)ncnc54)C[C@@H]3OS(=O)(=O)NC[C@H]1O[C@H]2n1cnc2c(=O)[nH]c(N)nc21 (stereo partly shown) [Compound 24] | 11 | 5000 | 11534 |  |  | 
25 | Nc1nc2c(ncn2[C@@H]2O[C@@H]3COP(=O)(O)O[C@H]4[C@@H](O)[C@H](n5cnc6c(=O)[nH]c(N)nc65)O[C@@H]4COP(=O)(O)O[C@H]3[C@H]2O)c(=O)[nH]1 [3′,3′cGMP, reference compound] |  |  |  | 8700 | 3970 | 8620
